Measured values reported in patent publication US20080051417A1, “Uses of selective cyclooxygenase-1 inhibitors” (priority 2006, published 2008).
Where two headings read alike, the source gives them in different places.

What was measured:
[1] = test system: lipoxin A4; assay: Myocardial lipoxin A4 levels (ELISA) in treated rats; format: in vivo, Sprague-Dawley rats; conditions: for effect on pioglitazone+atorvastatin effect on myocardial lipoxin A4: pioglitazone+atorvastatin pretreated rats
Method: (§1) Rats received the following treatment (4 rats in each group): 1) i.v. saline and oral water; 2) i.v. saline and oral aspirin 10 mg/kg; 3) i.v. saline and oral aspirin 50 mg/kg; 4) i.v. LPS and oral water; 5) i.v. LPS and oral aspirin 10 mg/kg; 6) i.v. LPS and oral aspirin 50 mg/kg; 7) i.v. LPS and oral aspirin 200 mg/kg; 8) oral pioglitazone (10 mg/kg/d) and atorvastatin (10 mg/kg/d); 9) oral pioglitazone+atorvastatin and aspirin 10 mg/kg; 10) oral pioglitazone+atorvastatin and aspirin 50 mg/kg; 11) oral pioglitazone+atorvastatin and aspirin 50 mg/kg and i.v. 1400 W, a specific iNOS inhibitor; or 12) oral pioglitazone+atorvastatin, oral water, and i.v. 1400 W, a specific iNOS inhibitor. LPS (10 mg/kg) was dissolved in 1 ml of saline and was administered intravenously 8 hours before harvesting the hearts. Aspirin was dissolved in water and administered by oral gavage 8 hours before harvesting the hearts. Atorvastatin and pioglitazone were administered by oral gavage once daily for 3 days; last dose was administered 16 hours before harvesting the hearts. 1400 W (1 mg/kg) was administered i.v. 15 minutes before harvesting the hearts. All hearts were analyzed for myocardial 15-epi-LPXA4, lipoxin A4, 6-keto-PGF1α (the stable metabolite of PGI2) and PGE2 levels.
(§2) The hearts were rapidly explanted, rinsed in cold PBS (pH 7.4), containing 0.16 mg/ml heparin to remove red blood cells and clots, frozen in liquid nitrogen and stored at −70° C. For 15-epi-LPXA4 and lipoxin A4 determination, myocardial samples from the anterior left ventricular wall were homogenized in ethanol (5 ml/g) and centrifuged at 10,000 g X15 min at 4° C. The supernatant was diluted with water and acidified to pH 3.5 with 1N HCl. The sample was loaded into C-18 Sep-Pak light column (Waters Corporation, Milford, Mass.) and washed with 1 ml of water followed by 1 ml of petroleum ether. The sample was eluted with 2 ml of methyl formate. The methyl formate was evaporated with N2 and the residue was dissolved in extraction buffer. The manufacturer instruction of the ELISA Kits was followed. For myocardial 6-keto-PGF1α and PGE2 levels myocardial samples were homogenized in RIPA lysis buffer with 10% proteinase inhibitor (Sigma) and centrifuged. The supernatants were collected and stored on ice. Measurement of 6-keto-PGF1α (the stable hydrolysis product of PGI2) and PGE2 were performed as instructed by the manufacturer.

[2] = test system: 15-epi-LPXA4; assay: Myocardial 15-epi-LPXA4 levels (ELISA) in treated rats; format: in vivo, Sprague-Dawley rats; conditions: for effect on pioglitazone+atorvastatin induction of myocardial 15-epi-LPXA4: pioglitazone+atorvastatin pretreated rats; for effect on myocardial 15-epi-LPXA4 levels: 8 h before harvest
Method: as §1, §2

[3] = test system: COX2; conditions: intravenous 1400 W, same dose as herein; 3-day pretreatment with atorvastatin 10 mg/kg/d; cited from earlier work
[4] = test system: 6-keto-PGF1α (the stable metabolite of PGI2); assay: Myocardial 6-keto-PGF1α levels (ELISA) in treated rats; format: in vivo, Sprague-Dawley rats; conditions: for effect on pioglitazone+atorvastatin increase of myocardial 6-keto-PGF1α: pioglitazone+atorvastatin pretreated rats
Method: as §1, §2

[5] = test system: PGE2; assay: Myocardial PGE2 levels (ELISA) in treated rats; format: in vivo, Sprague-Dawley rats; conditions: for effect on pioglitazone+atorvastatin increase of myocardial PGE2: pioglitazone+atorvastatin pretreated rats; for myocardial PGE2 levels: mean ±SEM
Method: as §1, §2

[6] = test system: 15-epi-LXA4; conditions: normal human volunteers, cited from earlier work
[7] = Infarct size after 30 minute coronary artery occlusion; format: in vivo; conditions: aspirin 20 mg/kg i.v. at end of 30 minute coronary artery occlusion; 3-day atorvastatin pretreatment
[8] = test system: 15-epi-LPXA4; conditions: cited from earlier work; for effect on pioglitazone+atorvastatin effect on myocardial 15-epi-LPXA4 levels: rats treated with pioglitazone+atorvastatin
[9] = test system: COX2; assay: Biotin switch assay and COX2 immunoblot of myocardial samples; format: in vivo, rats; conditions: compared with the pioglitazone+atorvastatin group
Method: S-nitrosylation of COX2 was determined by the biotin switch method as previously described (Atar et al., 2006). Briefly, myocardial samples from the left ventricular wall of rats treated with lipopolysaccharide (group 4) and pioglitazone+atorvastain (group 8) were homogenized in HEN buffer (25 mM HEPES (pH 7.7)-0.1 mM EDTA-0.01 mM necuproine). The supernatant containing membrane fragments and the cytosolic protein were recovered. The samples were incubated for 30 mins at 4° C. with blocking solution containing HEN buffer, 0.1% SDS and 20 mM N-ethylmaleimide (NEM) to block free thiols.
Lysates were centrifuged at 16,000×g for 10 min at 4° C. Cold acetone was added to precipitate the proteins. The pellets were resuspended in HEN buffer with 1% SDS, with 20 mM sodium ascorbate added to decompose the SNO bonds. The resulting free thiols in the sample were reacted with 0.05 mM biotinylating agent, biocytin (MPB) for 30 mins at room temperature. The excess MPB was removed by additional protein precipitation in cold acetone. COX2 was immunoprecipitated with anti-COX2 polyclonal antibody. […] The biotinylated COX2 protein was detected with horseradish peroxidase-linked streptavidin. […] The signal densities of the biotinylated COX2 and total COX2 were quantified by an image-scanning densitometer and the ratio of the densities was calculated for each animal.

Compound: CC(=N)NCc1cccc(CN)c1 [1400 W]
- effect on pioglitazone+atorvastatin effect on myocardial lipoxin A4 ([1]; 1400 W alone): not attenuated
- effect on pioglitazone+atorvastatin induction of myocardial 15-epi-LPXA4 ([2]; 1400 W 1 mg/kg i.v. alone): partially blocked
- effect on augmentation of COX2 activity by atorvastatin [3]: blocked
- effect on pioglitazone+atorvastatin increase of myocardial 6-keto-PGF1α ([4]; 1400 W): attenuated
- effect on pioglitazone+atorvastatin increase of myocardial PGE2 ([5]; 1400 W): completely blocked

Compound: CC(=O)Oc1ccccc1C(=O)O [Aspirin]
- effect on LPS effect on myocardial lipoxin A4 ([1]; LPS + aspirin 10 mg/kg): did not alter
- effect on LPS effect on myocardial lipoxin A4 ([1]; LPS + aspirin 50 mg/kg): did not alter
- effect on LPS effect on myocardial lipoxin A4 ([1]; LPS + aspirin 200 mg/kg, p<0.001 versus each of the other groups): augmented
- effect on myocardial lipoxin A4 ([1]; aspirin alone, 10 mg/kg): did not affect
- effect on myocardial lipoxin A4 ([1]; aspirin alone, 50 mg/kg): did not affect
- effect on pioglitazone+atorvastatin effect on myocardial lipoxin A4 ([1]; aspirin alone): not attenuated
- effect on myocardial 15-epi-LPXA4 levels ([2]; aspirin alone, oral 10 mg/kg): no effect
- effect on myocardial 15-epi-LPXA4 levels ([2]; aspirin alone, oral 50 mg/kg): no effect
- effect on LPS induction of myocardial 15-epi-LPXA4 ([2]; i.v. LPS + oral aspirin 10 mg/kg, p=0.08 versus LPS alone): did not significantly alter
- effect on LPS induction of myocardial 15-epi-LPXA4 ([2]; i.v. LPS + oral aspirin 50 mg/kg, p<0.001 versus LPS alone): augmented
- effect on LPS induction of myocardial 15-epi-LPXA4 ([2]; i.v. LPS + oral aspirin 200 mg/kg, p<0.001 versus LPS alone): augmented
- effect on pioglitazone+atorvastatin induction of myocardial 15-epi-LPXA4 ([2]; aspirin 10 mg/kg): attenuated
- effect on pioglitazone+atorvastatin induction of myocardial 15-epi-LPXA4 ([2]; aspirin 50 mg/kg): completely blocked
- effect on 15-epi-LXA4 ([6]; 650 mg/d): did not increase
- blood levels of 15ELX at 81 mg/d compared with 325 mg/d [6]: greater
- effect on infarct size limiting effect of atorvastatin [7]: completely abrogated
- myocardial 6-keto-PGF1α levels ([4]; LPS + aspirin 10 mg/kg, p<0.001 versus LPS alone, mean ±SEM): 76.70 ± 0.25 pg/mg
- myocardial 6-keto-PGF1α levels ([4]; LPS + aspirin 50 mg/kg, p<0.001 versus LPS alone, mean ±SEM): 27.66 ± 0.23 pg/mg
- myocardial 6-keto-PGF1α levels ([4]; LPS + aspirin 200 mg/kg, p<0.001 versus LPS alone, mean ±SEM): 25.39 ± 0.22 pg/mg
- myocardial 6-keto-PGF1α levels ([4]; aspirin alone 10 mg/kg, p=0.48 versus control): 22.35 pg/mg
- myocardial 6-keto-PGF1α levels ([4]; aspirin alone 50 mg/kg, p=0.001 versus control, mean ±SEM): 20.97 ± 0.51 pg/mg
- effect on pioglitazone+atorvastatin increase of myocardial 6-keto-PGF1α ([4]; aspirin 10 mg/kg): attenuated
- effect on pioglitazone+atorvastatin increase of myocardial 6-keto-PGF1α ([4]; aspirin 50 mg/kg): attenuated
- myocardial PGE2 levels ([5]; LPS + aspirin 10 mg/kg, p<0.001 versus LPS alone): 48.70 ± 3.02 pg/mg
- myocardial PGE2 levels ([5]; LPS + aspirin 50 mg/kg, p<0.001 versus LPS alone): 41.68 ± 0.24 pg/mg
- myocardial PGE2 levels ([5]; LPS + aspirin 200 mg/kg, p<0.001 versus LPS alone): 33.72 ± 0.46 pg/mg
- myocardial PGE2 levels ([5]; aspirin alone 10 mg/kg, not significant versus control): 34.48 ± 0.21 pg/mg
- myocardial PGE2 levels ([5]; aspirin alone 50 mg/kg, not significant versus control): 33.68 ± 0.24 pg/mg
- effect on pioglitazone+atorvastatin increase of myocardial PGE2 ([5]; aspirin 10 mg/kg): attenuated
- effect on pioglitazone+atorvastatin increase of myocardial PGE2 ([5]; aspirin 50 mg/kg): completely blocked

Compound: CC(C)c1c(C(=O)Nc2ccccc2)c(-c2ccccc2)c(-c2ccc(F)cc2)n1CC[C@@H](O)C[C@@H](O)CC(=O)O [atorvastatin]
- effect on myocardial 15-epi-LPXA4 levels ([8]; 3 days oral 5 and 10 mg/kg/d, but not 2 mg/kg/d, each drug alone): increased

Compound: Cc1onc(-c2ccccc2)c1-c1ccc(S(N)(=O)=O)cc1 [valdecoxib]
- effect on pioglitazone+atorvastatin effect on myocardial 15-epi-LPXA4 levels [8]: blocked

Compound: CC(c1cc2ccccc2s1)N(O)C(N)=O (stereo not shown) [zileuton]
- effect on pioglitazone+atorvastatin effect on myocardial 15-epi-LPXA4 levels [8]: blocked

Compound: lipopolysaccharide [LPS]
- effect on myocardial lipoxin A4 levels ([1]; LPS alone): small increase
- effect on myocardial 15-epi-LPXA4 levels ([2]; LPS 10 mg/kg i.v. alone): increased
- myocardial 6-keto-PGF1α levels ([4]; LPS alone, p<0.001 versus control, mean ±SEM): 80.56 ± 0.21 pg/mg
- myocardial PGE2 levels ([5]; LPS alone, p<0.001 versus control): 70.31±0.26
- total COX2 immunoblot signal intensity [9]: stronger
